These results are taken from ChEMBL document CHEMBL5528031, “Synthesis and antitumor activity of cyclopentane-fused anthraquinone derivatives” (Eur J Med Chem, 2024).

≈ marks a conversion by molar mass, not a printed value.

System in one data set: not listed separately
Put plainly: Antiproliferative activity against human DND41 cells assessed as inhibition of cell growth incubated for 72 hrs by MTT assay. To be noted: DND41, 72 h. It is filed as functional, cell-based.
What is called IC50 is the concentration that gives 50% inhibition. Regarding `CN1CCN(C(=O)C2Cc3c(O)c4c(c(O)c3C2)C(=O)c2ccccc2C4=O)CC1`, the IC50 was found to be 10.1 µM.
In the case of `NCCN(CCN)C(=O)C1Cc2c(O)c3c(c(O)c2C1)C(=O)c1ccccc1C3=O`, the IC50 was determined as 2.4 µM.
Still for that read-out and setting: then `N[C@H]1CC[C@H](NC(=O)C2Cc3c(O)c4c(c(O)c3C2)C(=O)c2ccccc2C4=O)CC1`, with 2.5 µM; and `NCCNC(=O)C1Cc2c(O)c3c(c(O)c2C1)C(=O)c1ccccc1C3=O`, with 3.1 µM.

A further data set has as its system LN-229. Briefly: Antiproliferative activity against human LN-229 cells assessed as inhibition of cell growth incubated for 72 hrs by MTT assay. To be noted: LN-229, 72 h. It is filed as functional, cell-based. Background: Tetrazolium assays rely on reduction of a dye to a coloured formazan, in cell work by metabolically active cells.
With `CN1CCN(C(=O)C2Cc3c(O)c4c(c(O)c3C2)C(=O)c2ccccc2C4=O)CC1`, the IC50 was 35 µM.
As to `NCCN(CCN)C(=O)C1Cc2c(O)c3c(c(O)c2C1)C(=O)c1ccccc1C3=O`, the IC50 came out at 1.6 µM.
On the same count and under the same terms, then `N[C@H]1CC[C@H](NC(=O)C2Cc3c(O)c4c(c(O)c3C2)C(=O)c2ccccc2C4=O)CC1`, with 4.5 µM; and `NCCNC(=O)C1Cc2c(O)c3c(c(O)c2C1)C(=O)c1ccccc1C3=O`, with 2.6 µM.

In the next data set the test system is HCT-116. Put plainly: Antiproliferative activity against human HCT-116 cells assessed as inhibition of cell growth incubated for 72 hrs by MTT assay. To be noted: HCT-116, 72 h. It is filed as functional, cell-based.
In the case of `CN1CCN(C(=O)C2Cc3c(O)c4c(c(O)c3C2)C(=O)c2ccccc2C4=O)CC1`, the IC50 stood at 24.3 µM.
The same measure, in the same setting: then `NCCN(CCN)C(=O)C1Cc2c(O)c3c(c(O)c2C1)C(=O)c1ccccc1C3=O`, with 1.3 µM.
Same read-out and setting: then `N[C@H]1CC[C@H](NC(=O)C2Cc3c(O)c4c(c(O)c3C2)C(=O)c2ccccc2C4=O)CC1`, with 2.1 µM; and `NCCNC(=O)C1Cc2c(O)c3c(c(O)c2C1)C(=O)c1ccccc1C3=O`, with 1.4 µM.

The subject of the next data set is NCI-H1975. Briefly: Antiproliferative activity against human NCI-H1975 cells assessed as inhibition of cell growth incubated for 72 hrs by MTT assay. It is filed as functional, cell-based. To be noted: NCI-H1975, 72 h.
For the compound `CN1CCN(C(=O)C2Cc3c(O)c4c(c(O)c3C2)C(=O)c2ccccc2C4=O)CC1`, the IC50 worked out at 18.1 µM.
On to `NCCN(CCN)C(=O)C1Cc2c(O)c3c(c(O)c2C1)C(=O)c1ccccc1C3=O`, for which the IC50 turned out to be 1.8 µM.
As to `N[C@H]1CC[C@H](NC(=O)C2Cc3c(O)c4c(c(O)c3C2)C(=O)c2ccccc2C4=O)CC1`, the IC50 was found to be 6.5 µM.
Same read-out and setting: then `NCCNC(=O)C1Cc2c(O)c3c(c(O)c2C1)C(=O)c1ccccc1C3=O`, with 1.8 µM.

The test system of a further data set is CAPAN-1. Put plainly: Antiproliferative activity against human CAPAN-1 cells assessed as inhibition of cell growth incubated for 72 hrs by MTT assay. The data set is classed as functional, cell-based. To be noted: CAPAN-1, 72 h.
Consider `CN1CCN(C(=O)C2Cc3c(O)c4c(c(O)c3C2)C(=O)c2ccccc2C4=O)CC1`, for which the IC50 was 35.2 µM.
The same measure, in the same setting: to `NCCN(CCN)C(=O)C1Cc2c(O)c3c(c(O)c2C1)C(=O)c1ccccc1C3=O` belongs 1.6 µM; to `N[C@H]1CC[C@H](NC(=O)C2Cc3c(O)c4c(c(O)c3C2)C(=O)c2ccccc2C4=O)CC1`, 1.9 µM; to `NCCNC(=O)C1Cc2c(O)c3c(c(O)c2C1)C(=O)c1ccccc1C3=O`, 1.6 µM.

System in another data set: not listed separately
Briefly: Cytotoxicity against hFB-hTERT6 cells assessed as inhibition of cell growth incubated for 72 hrs by MTT assay. It is filed as toxicity, cell-based. To be noted: human.
Take `CN1CCN(C(=O)C2Cc3c(O)c4c(c(O)c3C2)C(=O)c2ccccc2C4=O)CC1`: the IC50 at 72 h was > 50 µM.
Take `NCCN(CCN)C(=O)C1Cc2c(O)c3c(c(O)c2C1)C(=O)c1ccccc1C3=O`: the IC50 at 72 h worked out at 2.3 µM.
On the same count and under the same terms, to `N[C@H]1CC[C@H](NC(=O)C2Cc3c(O)c4c(c(O)c3C2)C(=O)c2ccccc2C4=O)CC1` belongs 4.5 µM.
On the same count and under the same terms, then `NCCNC(=O)C1Cc2c(O)c3c(c(O)c2C1)C(=O)c1ccccc1C3=O`, with 4 µM.

Another data set concerns Z-138. Briefly: Antiproliferative activity against human Z138 cells assessed as inhibition of cell growth incubated for 72 hrs by MTT assay. It is filed as functional, cell-based. To be noted: Z-138, 72 h.
With `CN1CCN(C(=O)C2Cc3c(O)c4c(c(O)c3C2)C(=O)c2ccccc2C4=O)CC1`, the IC50 was 36.2 µM.
Turning to `NCCN(CCN)C(=O)C1Cc2c(O)c3c(c(O)c2C1)C(=O)c1ccccc1C3=O`, the concentration for half-maximal inhibition (IC50) was 2.5 µM.
The same measure, in the same setting: then `N[C@H]1CC[C@H](NC(=O)C2Cc3c(O)c4c(c(O)c3C2)C(=O)c2ccccc2C4=O)CC1`, with 2.6 µM.
Take `NCCNC(=O)C1Cc2c(O)c3c(c(O)c2C1)C(=O)c1ccccc1C3=O`: the IC50 came to 2.1 µM.

System in a further data set: not listed separately
Put plainly: Octanol/water partition coefficient, logP of compound at pH 7.4 by HPLC analysis.
Conditions: not given
It is filed as physicochemical.
A word on the logD: it is the decadic logarithm of the distribution of all forms, ionised or not, between an organic phase and buffer at a given pH. A low value points to a more hydrophilic compound. As for `CC(=O)[C@]1(O)Cc2c(O)c3c(c(O)c2[C@@H](O[C@H]2C[C@H](N)[C@H](O)[C@H](C)O2)C1)C(=O)c1c(O)cccc1C3=O` [CARUBICIN], the logD turned out to be 0.95.

A further data set relates to HL-60. Briefly: Antiproliferative activity against human HL-60 cells assessed as inhibition of cell growth incubated for 72 hrs by MTT assay. The data set is classed as functional, cell-based. To be noted: HL-60, 72 h.
As for `CN1CCN(C(=O)C2Cc3c(O)c4c(c(O)c3C2)C(=O)c2ccccc2C4=O)CC1`, the IC50 is > 50 µM.
On the same count and under the same terms, then `NCCN(CCN)C(=O)C1Cc2c(O)c3c(c(O)c2C1)C(=O)c1ccccc1C3=O`, with 2.3 µM.
Take `N[C@H]1CC[C@H](NC(=O)C2Cc3c(O)c4c(c(O)c3C2)C(=O)c2ccccc2C4=O)CC1`: the IC50 was 2.7 µM.
Still for that read-out and setting: then `NCCNC(=O)C1Cc2c(O)c3c(c(O)c2C1)C(=O)c1ccccc1C3=O`, with 3.7 µM.

System in the next data set: not listed separately
Briefly: Antiproliferative activity against multidrug resistant human K562/4 cells expressing P-gp assessed as inhibition of cell growth incubated for 72 hrs by MTT assay. It is filed as functional, cell-based. To be noted: K562/4, 72 h.
Take `CN1CCN(C(=O)C2Cc3c(O)c4c(c(O)c3C2)C(=O)c2ccccc2C4=O)CC1`: the concentration for half-maximal inhibition (IC50) is > 50 µM.
Still for that read-out and setting: to `NCCN(CCN)C(=O)C1Cc2c(O)c3c(c(O)c2C1)C(=O)c1ccccc1C3=O` belongs 18 µM.
Same read-out and setting: to `N[C@H]1CC[C@H](NC(=O)C2Cc3c(O)c4c(c(O)c3C2)C(=O)c2ccccc2C4=O)CC1` belongs 8.8 µM.
The same measure, in the same setting: to `NCCNC(=O)C1Cc2c(O)c3c(c(O)c2C1)C(=O)c1ccccc1C3=O` belongs 6 µM.

The next data set relates to K562. Put plainly: Antiproliferative activity against human K562 cells assessed as inhibition of cell growth incubated for 72 hrs by MTT assay. The data set is classed as functional, cell-based. To be noted: K562, 72 h.
Regarding `CN1CCN(C(=O)C2Cc3c(O)c4c(c(O)c3C2)C(=O)c2ccccc2C4=O)CC1`, the half-maximal inhibitory concentration (IC50) is > 50 µM.
On to `NCCN(CCN)C(=O)C1Cc2c(O)c3c(c(O)c2C1)C(=O)c1ccccc1C3=O`, for which the IC50 was found to be 1.9 µM.
On the same count and under the same terms, to `N[C@H]1CC[C@H](NC(=O)C2Cc3c(O)c4c(c(O)c3C2)C(=O)c2ccccc2C4=O)CC1` belongs 2 µM; to `NCCNC(=O)C1Cc2c(O)c3c(c(O)c2C1)C(=O)c1ccccc1C3=O`, 2.1 µM.

System in a further data set: not listed separately
Briefly: Solubility of compound in deionized water at pH 6.
Conditions: not given
The data set is classed as physicochemical.
In general, solubility refers to the dissolved amount per volume that the medium holds. A lower solubility goes with a poorly soluble substance. As to `CN1CCN(C(=O)C2Cc3c(O)c4c(c(O)c3C2)C(=O)c2ccccc2C4=O)CC1`, the solubility was ~1.7 mg/mL (≈ 4.18 mM).
